Measured values taken from PMC11372076, “A dual inhibitor of PIP5K1C and PIKfyve prevents SARS-CoV-2 entry into cells” (Experimental & Molecular Medicine, 2024).

Legend:
Format in all cases: cell-based
VSV-G-pseudotyped virus = test system: VSV-G-pseudotyped virus
[1] = test system: SARS-CoV-2 spike protein (Spike-HexaPro)
RPE1 cells [2] = test: Vacuolization analysis
Experimental: CUGAUCAAGAU G A -3 and PIKfyve#2 siRNA 5'-
[…] -3'. siRNA oligonucleotides were purchased from Genolution, Sigma- Aldrich and Integrated DNA Technologies.
These siRNAs were transfected into the cell using lipofectamine RNAiMAX (Invitrogen, 13778150) following manufacturer ’s protocol.
RPE1 cells were treated with UNI418 at indicated concentration for over-night.
After that, the image was taken by EVOS M5000 (Thermo Fisher Scientific).
RPE1 cells were treated with UNI418 at the different concentration during the time. Live cell images were taken by Lionheart LX Automated Microscope and analyzed in Gen5 (Agilent).
RPE1 cells were treated with indicated doses of UNI418 overnight. To analyze PIP2 level by flow cytometry, trypsinized cells were fixed with 4% paraformaldehyde for 10 min at room temperature. The fixed cells were permeabilized with 0.2% PBS-T (Triton X-100) for 5min and blocked with 5% Bovine Serum Albumin (BSA), and stained with the primary antibody for 4h at 4°C. Cells were washed three times with 1% BSA-PBS and incubated with the fluorescence- conjugated secondary antibody Alexa Fluor® 488 AffiniPure Goat Anti-Mouse IgG (H+L) (Jackson ImmunoResearch,111- 545- 003) for 1h at room temperature analyzed by BD Accuri C6 Plus flow cytometer (BD Biosciences). […]

[3] = test system: HEK293T cells stably expressing mCherry-GFP-LC3; test: mCherry-GFP-LC3 tandem fluorescent protein quenching assay; conditions: 0.5 μM, within 6 h
Experimental: HEK293T cells at a density of 1.6 × 10^4 cells per well in 96-well plates (Nunc) were stained with Hoechst (Cayman Chemical Company, 33342) for 10 min. The cells were washed with PBS two times and incubated with prewarmed media supplemented with 10% FBS. Cells were treated with UNI418 in prewarmed media. Images were acquired in a time-dependent manner and quantified with an ImageXpress high-content screening system (Molecular Devices, San Jose, CA, USA).
Fig. 3 UNI418 negatively affects autophagosome-lysosome fusion and endosome acidification. a Live-cell imaging of HEK293T cells stably expressing mCherry-GFP-LC3 treated with 0.5 μM UNI418 at the indicated time points; the images within the white rectangular boxes are magnified on the right side. Scale bar, 30 µm. The number (b) and area (c) of GFP-positive dots per cell were quantified by ImageXpress. d Immunofluorescence images illustrating the inhibition of endolysosomal acidification by UNI418. Vero cells were treated with the mock control or 1 µM UNC3230, apilimod or UNI418 for 1 h at 37 °C. […] The cells were analyzed by confocal microscopy using two emission wavelengths at 493–560 (green) and 590–720 nm (red) after excitation at 488 nm. […] The green-to-red fluorescence intensity ratio (e) and the area of fluorescent spots (f) were quantified. b, c, e, f The data are presented as the means ± SEMs, with a minimum of 200 spots. […]

RPE1 cells [4] = test: LAMP1 accumulation (Western blot and immunofluorescence)
Source text: Supplementary Fig. 9 UNI418 is not a simple lysosomotropic agent. a Western blot of LAMP1 with UNI418 and Chloroquine. GAPDH was used as a loading control. NT, not treated. b Immunofluorescence images showing accumulation of LAMP1 in RPE1 cells with the indicated concentration of Chloroquine and UNI418 treatment, and images within the white rectangular boxes are zoomed in on the right side. Scale bar, 20 µm. c The mean of intensity in individual cell was quantified. Data presented as mean ± SEMs, n >20.
Significance was determined by Student’s t-test, ***p < 0.001.
(1 picture or pasted object on this page, not shown here)

c1ccc(-c2cc(Nc3nc(-c4ccncc4)nc4ccccc34)n[nH]2)cc1 [UNI418, N -(5-phenyl-1 H -pyrazol-3-yl)-2-(4-pyridinyl)-4-quinazolinamine]
pseudotyped virus entry (VSV-G-pseudotyped virus): unaffected
delay in generation of the mature Spike-HexaPro cleavage product [1]: 3 h
vacuolization (RPE1 cells [2]): induced vacuolization
number of nonacidic autophagosomes [3]: considerably increased
accumulation of LAMP1 or LAMP1-positive lysosomes (RPE1 cells [4]): did not cause the accumulation
